According to US20210069145A1, “COMPOSITIONS AND METHODS FOR REDUCING A FATTY ACID DESATURATION INDEX IN A SUBJECT IN NEED THEREOF” (Amarin Pharmaceuticals Ireland Limited, priority 2013, published 2021):

Tested on: Lipoprotein Particle Concentrations
Test: Lipoprotein particle concentrations, 12-week double-blind placebo-controlled study of >96% E-EPA in statin-treated patients
Type: in vivo, human
Details: 12 weeks; for IDL, Change From Baseline, % / IDL, End of Treatment / Large HDL, Change From Baseline, % / Large HDL, End of Treatment / Large LDL, Change From Baseline, % / Large LDL, End of Treatment / Large VLDL, Change From Baseline, % / Large VLDL, End of Treatment / Medium HDL, Change From Baseline, % / Medium HDL, End of Treatment / Medium VLDL, Change From Baseline, % / Medium VLDL, End of Treatment / Small HDL, Change From Baseline, % / Small HDL, End of Treatment / Small LDL, Change From Baseline, % / Small LDL, End of Treatment / Small VLDL, Change From Baseline, % / Small VLDL, End of Treatment / Total HDL, Change From Baseline, % / Total HDL, End of Treatment / Total LDL, Change From Baseline, % / Total LDL, End of Treatment / Total VLDL, Change From Baseline, % / Total VLDL, End of Treatment: median
Description: A multi-center, placebo-controlled, randomized, double-blind, 12-week study was performed to evaluate the efficacy and safety of >96% E-EPA in patients with fasting triglyceride levels ≥200 mg/dl and <500 mg/dl despite statin therapy (the mean of two qualifying entry values needed to be ≥185 mg/dl and at least one of the values needed to be ≥200 mg/dl). The primary objective of the study was to determine the efficacy of >96% E-EPA 2 g daily and 4 g daily, compared to placebo, in lowering fasting TG levels in patients with high risk for cardiovascular disease and with fasting TG levels ≥200 mg/dl and <500 mg/dl, despite treatment to LDL-C goal on statin therapy.
The population for this study was men and women >18 years of age with a body mass index ≤45 kg/m^2 with fasting TG levels greater than or equal to 200 mg/dl and less than 500 mg/dl and on a stable does of statin therapy (with or without ezetimibe). The statin was atorvostatin, rosuvastatin or simvastatin. The dose of statin must have been stable for ≥4 weeks prior to the LDL-C/TG baseline qualifying measurement for randomization. The statin dose was optimized such that the patients are at their LDL-C goal at the LDL-C/TG baseline qualifying measurements. The same statin at the same dose was continued until the study ended.
Approximately 702 patients were randomized at approximately 80 centers in the U.S. The study was a 18- to 20-week, Phase 3, multi-center study consisting of 2 study periods: (1) A 6- to 8-week screening period that included a diet and lifestyle stabilization, a non-statin lipid-altering treatment washout, and an LDL-C and TG qualifying period and (2) A 12-week, double-blind, randomized, placebo-controlled treatment period.
After confirmation of qualifying fasting LDL-C and TG values, eligible patients entered a 12-week, randomized, double-blind treatment period. At Visit 4 (Week 0), patients were randomly assigned to 1 of the following treatment groups: • >96% E-EPA 2 g daily, • >96% E-EPA 4 g daily, or • Placebo.
During the double-blind treatment period, patients were to take 2 capsules (>96% E-EPA or matching placebo) in the morning and 2 capsules in the evening for a total of 4 capsules per day. • Patients in the >96% E-EPA 2 g/day treatment group received 1>96% E-EPA 1 g capsule and 1 matching placebo capsule in the morning and in the evening. • Patients in the >96% E-EPA 4 g/day treatment group received 2>96% E-EPA 1 g capsules in the morning and evening.
The primary efficacy variable for the double-blind treatment period was percent change in TG from baseline to Week 12 endpoint. The secondary efficacy variables for the double-blind treatment period included the following: • Percent changes in total cholesterol (TC), high-density lipoprotein cholesterol (HDL-C), LDL-C, calculated non-HDL-C, and very low-density lipoprotein cholesterol (VLDL-C) from baseline to Week 12 endpoint; • Percent change in very low-density lipoprotein TG from baseline to Week 12; • Percent changes in apolipoprotein A-I (apo A-I), apolipoprotein B (apo B), and apo A-I/apo B ratio from baseline to Week 12; • Percent changes in lipoprotein(a) from baseline to Week 12; • Percent changes in LDL particle number and size, measured by nuclear magnetic resonance, from baseline to Week 12; • Percent change in remnant-like particle cholesterol from baseline to Week 12; • Percent change in oxidized LDL from baseline to Week 12; • Changes in FPG and HbA1c from baseline to Week 12; • Change in insulin resistance, as assessed by the homeostasis model index insulin resistance, from baseline to Week 12; • Percent change in lipoprotein associated phospholipase A2 (Lp-PLA2) from baseline to Week 12; • Change in intracellular adhesion molecule-1 from baseline to Week 12; • Change in interleukin-2 from baseline to Week 12; • Change in plasminogen activator inhibitor-1 from baseline to Week 12. […]

[1] = 2 g/day, placebo-adjusted Hodges-Lehmann median
[2] = 4 g/day, placebo-adjusted Hodges-Lehmann median
[3] = 4 g/day, placebo-adjusted Hodges-Lehmann median, listed as Ethyl Eicosapentaenoate
[4] = 4 g/day, placebo-adjusted Hodges-Lehmann median, listed as IPE

With `CC/C=C\C/C=C\C/C=C\C/C=C\C/C=C\CCCC(=O)OCC` [ethyl eicosapentaenoate, all-cis eicosa-5,8,11,14,17-pentaenoic acid ethyl ester] the “IDL, Change From Baseline, %” value (2 g/day, n = 222) was 10.5%, the “IDL, End of Treatment” value (2 g/day, n = 222) was 63.5 nmol/L and the “Large HDL, Change From Baseline, %” value (2 g/day, n = 222) was −4.0%. For the same compound, the “Large HDL, End of Treatment” value (2 g/day, n = 222) was 2.4 µmol/L, the “Large LDL, Change From Baseline, %” value (2 g/day, n = 222) was 47.7% and the “Large LDL, End of Treatment” value (2 g/day, n = 222) was 202.0 nmol/L. For the same compound, the “Large VLDL, Change From Baseline, %” value (2 g/day, n = 222) was −19.7%, the “Large VLDL, End of Treatment” value (2 g/day, n = 222) was 10.0 nmol/L and the “Medium HDL, Change From Baseline, %” value (2 g/day, n = 222) was 2.9%. The “Medium HDL, End of Treatment” value (2 g/day, n = 222) was 7.2 µmol/L, the “Medium VLDL, Change From Baseline, %” value (2 g/day, n = 222) was 7.9% and the “Medium VLDL, End of Treatment” value (2 g/day, n = 222) was 59.6 nmol/L. For the same compound, the “Small HDL, Change From Baseline, %” value (2 g/day, n = 222) was −0.6%, the “Small HDL, End of Treatment” value (2 g/day, n = 222) was 23.8 µmol/L and the “Small LDL, Change From Baseline, %” value (2 g/day, n = 222) was −4.3%. The “Small LDL, End of Treatment” value (2 g/day, n = 222) was 920.5 nmol/L, the “Small VLDL, Change From Baseline, %” value (2 g/day, n = 222) was 22.1% and the “Small VLDL, End of Treatment” value (2 g/day, n = 222) was 49.6 nmol/L. The “Total HDL, Change From Baseline, %” value (2 g/day, n = 222) was 0.7%, the “Total HDL, End of Treatment” value (2 g/day, n = 222) was 34.7 µmol/L and the “Total LDL, Change From Baseline, %” value (2 g/day, n = 222) was 4.7%. For the same compound, the “Total LDL, End of Treatment” value (2 g/day, n = 222) was 1215 nmol/L, the “Total VLDL, Change From Baseline, %” value (2 g/day, n = 222) was 12.0% and the “Total VLDL, End of Treatment” value (2 g/day, n = 222) was 122.4 nmol/L. The “IDL, Median Change From Baseline IPE 2 g/day vs Placebo, %” value [1] was 8.6%, the “Large HDL, Median Change From Baseline IPE 2 g/day vs Placebo, %” value [1] was −13.5% and the “Large LDL, Median Change From Baseline IPE 2 g/day vs Placebo, %” value [1] was 26.5%. For the same compound, the “Large VLDL, Median Change From Baseline IPE 2 g/day vs Placebo, %” value [1] was −24.2%, the “Medium HDL, Median Change From Baseline IPE 2 g/day vs Placebo, %” value [1] was −4.5% and the “Medium VLDL, Median Change From Baseline IPE 2 g/day vs Placebo, %” value [1] was 2.6%. For the same compound, the “Small HDL, Median Change From Baseline IPE 2 g/day vs Placebo, %” value [1] was −0.2%, the “Small LDL, Median Change From Baseline IPE 2 g/day vs Placebo, %” value [1] was −14.7% and the “Small VLDL, Median Change From Baseline IPE 2 g/day vs Placebo, %” value [1] was 16.5%. The “Total HDL, Median Change From Baseline IPE 2 g/day vs Placebo, %” value [1] was −3.1%, the “Total LDL, Median Change From Baseline IPE 2 g/day vs Placebo, %” value [1] was −7.5% and the “Total VLDL, Median Change From Baseline IPE 2 g/day vs Placebo, %” value [1] was 1.8%. For the same compound, the “reduction of median concentration of small LDL particles over baseline when adjusted for placebo control” value (4 g per day) was 13.5%, the “reduction of median concentration of total HDL over baseline when adjusted for placebo” value (4 g per day) was 7.4% and the “reduction of median concentration of total LDL over baseline when adjusted for placebo” value (4 g per day) was 7.7%. The “reduction of median concentration of total VLDL over baseline when adjusted for placebo” value (4 g per day) was 12.2%, the “IDL, Change From Baseline, %” value (4 g/day, n = 216) was 23.7% and the “IDL, End of Treatment” value (4 g/day, n = 216) was 63.0 nmol/L. For the same compound, the “Large HDL, Change From Baseline, %” value (4 g/day, n = 216) was −21.6%, the “Large HDL, End of Treatment” value (4 g/day, n = 216) was 1.9 µmol/L and the “Large LDL, Change From Baseline, %” value (4 g/day, n = 216) was 55.2%. For the same compound, the “Large LDL, End of Treatment” value (4 g/day, n = 216) was 172.5 nmol/L, the “Large VLDL, Change From Baseline, %” value (4 g/day, n = 216) was −41.9% and the “Large VLDL, End of Treatment” value (4 g/day, n = 216) was 7.7 nmol/L. The “Medium HDL, Change From Baseline, %” value (4 g/day, n = 216) was 4.2%, the “Medium HDL, End of Treatment” value (4 g/day, n = 216) was 6.9 µmol/L and the “Medium VLDL, Change From Baseline, %” value (4 g/day, n = 216) was −6.9%. For the same compound, the “Medium VLDL, End of Treatment” value (4 g/day, n = 216) was 49.7 nmol/L, the “Small HDL, Change From Baseline, %” value (4 g/day, n = 216) was −3.9% and the “Small HDL, End of Treatment” value (4 g/day, n = 216) was 23.1 µmol/L. For the same compound, the “Small LDL, Change From Baseline, %” value (4 g/day, n = 216) was −1.1%, the “Small LDL, End of Treatment” value (4 g/day, n = 216) was 902.5 nmol/L and the “Small VLDL, Change From Baseline, %” value (4 g/day, n = 216) was 8.3%. The “Small VLDL, End of Treatment” value (4 g/day, n = 216) was 46.8 nmol/L, the “Total HDL, Change From Baseline, %” value (4 g/day, n = 216) was −4.0% and the “Total HDL, End of Treatment” value (4 g/day, n = 216) was 32.6 µmol/L. For the same compound, the “Total LDL, Change From Baseline, %” value (4 g/day, n = 216) was 3.8%, the “Total LDL, End of Treatment” value (4 g/day, n = 216) was 1191 nmol/L and the “Total VLDL, Change From Baseline, %” value (4 g/day, n = 216) was −2.5%. For the same compound, the “Total VLDL, End of Treatment” value (4 g/day, n = 216) was 110.0 nmol/L, the “IDL, Median Change From Baseline IPE 4 g/day vs Placebo, %” value [2] was 10.0% and the “Large HDL, Median Change From Baseline IPE 4 g/day vs Placebo, %” value [2] was “significantly reduced”. For the same compound, the “Large LDL, Median Change From Baseline IPE 4 g/day vs Placebo, %” value [2] was “increased”, the “Large VLDL, Median Change From Baseline IPE 4 g/day vs Placebo, %” value [2] was “significantly reduced” and the “Medium HDL, Median Change From Baseline IPE 4 g/day vs Placebo, %” value [2] was −6.5%. The “Medium VLDL, Median Change From Baseline IPE 4 g/day vs Placebo, %” value [2] was “significantly reduced”, the “Small HDL, Median Change From Baseline IPE 4 g/day vs Placebo, %” value [2] was −2.8% and the “Small LDL, Median Change From Baseline IPE 4 g/day vs Placebo, %” value [2] was “significantly reduced”. For the same compound, the “Small VLDL, Median Change From Baseline IPE 4 g/day vs Placebo, %” value [2] was 2.8%, the “Total HDL, Median Change From Baseline IPE 4 g/day vs Placebo, %” value [2] was “significantly reduced” and the “Total LDL, Median Change From Baseline IPE 4 g/day vs Placebo, %” value [2] was “significantly reduced”. For the same compound, the “Total VLDL, Median Change From Baseline IPE 4 g/day vs Placebo, %” value [2] was “significantly reduced”, the “Small LDL, Median Change From Baseline IPE 4 g/day vs Placebo, %” value [3] was −13.5% and the “Total HDL, Median Change From Baseline IPE 4 g/day vs Placebo, %” value [3] was −7.4%. For the same compound, the “Total LDL, Median Change From Baseline IPE 4 g/day vs Placebo, %” value [3] was −7.7%, the “Total VLDL, Median Change From Baseline IPE 4 g/day vs Placebo, %” value [3] was −12.2% and the “Large HDL, Median Change From Baseline IPE 4 g/day vs Placebo, %” value [4] was −31.0%. For the same compound, the “Large LDL, Median Change From Baseline IPE 4 g/day vs Placebo, %” value [4] was 34.2%, the “Large VLDL, Median Change From Baseline IPE 4 g/day vs Placebo, %” value [4] was −46.4% and the “Medium VLDL, Median Change From Baseline IPE 4 g/day vs Placebo, %” value [4] was −12.1%. For the same compound, the “Small LDL, Median Change From Baseline IPE 4 g/day vs Placebo, %” value [4] was −13.5%, the “Total HDL, Median Change From Baseline IPE 4 g/day vs Placebo, %” value [4] was −7.4% and the “Total LDL, Median Change From Baseline IPE 4 g/day vs Placebo, %” value [4] was −7.7%. For the same compound, the “Total VLDL, Median Change From Baseline IPE 4 g/day vs Placebo, %” value [4] was −12.2%.
